Measured values: patent US6013795A, “Alpha-branched fluoroalkylcarbonyl fluorides and their derivatives” (3M Innovative Properties Company, priority 1996, dated 2000)

assay: thermal degradation in water and characterization of volatile products; type: physicochemical; details: aqueous solution, similar way
Protocol: The thermal degradation of an aqueous α-branched perfluoroalkylcarbonyl fluoride and the characterization of the products produced from the degradation were carried out using the following procedure. […] 5.7 g of volatile degradation products were then collected by azeotropic distillation using a Dean-Stark apparatus.
The thermal degradation of C7 F15 CF(CF3)COF (from Example A4) dispersed in water was also carried out by heating the aqueous mixture for several hours at approximately 80° C.

Row | Structure (SMILES) | degradation products in aqueous solution
1 | O=C(O)C(F)(C(F)(F)F)C(F)(F)C(F)(F)C(F)(F)C(F)(F)C(F)(F)C(F)(F)C(F)(F)F (stereo not drawn) [Example M1, C7 F15 CF(CF3)COOH] | the same monohydride and olefin

same assay, conditions: deionized water, refluxed 2 hours

Row | Structure (SMILES) | monohydride C7 F15 CFHCF3 in degradation products [%]
2 | O=C(F)C(F)(C(F)(F)F)C(F)(F)C(F)(F)C(F)(F)C(F)(F)C(F)(F)C(F)(F)C(F)(F)F (stereo not drawn) [Example A1, C7 F15 CF(CF3)COF] | 85

same assay, conditions: deionized water, refluxed 2 hours; cis/trans mixture

Row | Structure (SMILES) | olefin C6 F13 CF=CFCF3 in degradation products [%]
3 | O=C(F)C(F)(C(F)(F)F)C(F)(F)C(F)(F)C(F)(F)C(F)(F)C(F)(F)C(F)(F)C(F)(F)F (stereo not drawn) [Example A1, C7 F15 CF(CF3)COF] | 15

same assay, conditions: from 8 g, water, refluxed 2 hours

Row | Structure (SMILES) | volatile degradation products collected [g]
4 | O=C(F)C(F)(C(F)(F)F)C(F)(F)C(F)(F)C(F)(F)C(F)(F)C(F)(F)C(F)(F)C(F)(F)F (stereo not drawn) [Example A1, C7 F15 CF(CF3)COF] | 5.7

same assay, conditions: water, several hours at approximately 80° C.

Row | Structure (SMILES) | volatile products formed
5 | O=C(F)C(F)(C(F)(F)F)C(F)(F)C(F)(F)C(F)(F)C(F)(F)C(F)(F)C(F)(F)C(F)(F)F (stereo not drawn) [Example A1, C7 F15 CF(CF3)COF] | The same volatile products were formed

assay: surface tension of aqueous surfactant solutions and critical micelle concentration (K-12 Processor Tensiometer); type: physicochemical; details: carboxylate salts, deionized water; Table 5
From the text: Critical Micelle Concentration (CMC): The critical micelle concentration is defined as the concentration at which further surface tension is no longer lowered with increasing levels of surfactant. […] Surface tension is then plotted vs. log concentration and the data points are connected. The resulting curve has a nearly horizontal flat portion at concentrations above the CMC and has a negative steep slope at concentrations below the CMC. The CMC is defined as the lowest surfactant concentration in the horizontal flat portion of the curve.
(§1) Then the critical micelle concentration (CMC) was determined for each surfactant.
as §1

Row | Structure (SMILES) | CMC [ppm] | Surf. Tens. at the CMC [dynes/cm]
6 | O=C(O)C(F)(C(F)(F)F)C(F)(F)C(F)(F)C(F)(F)C(F)(F)C(F)(F)F (stereo not drawn) [Example M15, C5 F11 CF(CF3)COO^- H4 N^+] | > 10000 | 22.1
7 | O=C(O)C(F)(C(F)(F)F)C(F)(F)C(F)(F)C(F)(F)C(F)(F)C(F)(F)C(F)(F)F (stereo not drawn) [Example M16, C6 F13 CF(CF3)COO^- H4 N^+] | 8000 | 17.9
8 | O=C(O)C(F)(C(F)(F)F)C(F)(F)C(F)(F)C(F)(F)C(F)(F)C(F)(F)C(F)(F)C(F)(F)C(F)(F)F (stereo not drawn) [Example M17, C8 F17 CF(CF3)COO^- H4 N^+] | 2300 | 14.7
9 | O=C(O)C(F)(C(F)(F)F)C(F)(F)C(F)(F)C(F)(F)C(F)(F)C(F)(F)C(F)(F)C(F)(F)C(F)(F)C(F)(F)C(F)(F)F (stereo not drawn) [Example M18, C10 F21 CF(CF3)COO^- H4 N^+] | 600 | 14.8
10 | O=C(O)C(F)(C(F)(F)F)C(F)(F)C(F)(F)C(F)(F)C(F)(F)C(F)(F)C(F)(F)C(F)(F)F (stereo not drawn) [Example M20, C7 F15 CF(CF3)COO^- H3 N^+ C2 H4 OH] | 500 | 15.0
11 | O=C(O)C(F)(C(F)(F)F)C(F)(F)C(F)(F)C(F)(F)C(F)(F)C(F)(F)F (stereo not drawn) [Example M21, C5 F11 CF(CF3)COO^- K^+] | > 10000 | 22.5
12 | O=C(O)C(F)(C(F)(F)F)C(F)(F)C(F)(F)C(F)(F)C(F)(F)C(F)(F)C(F)(F)F (stereo not drawn) [Example M22, C6 F13 CF(CF3)COO^- K^+] | 10000 | 17.5
13 | O=C(O)C(F)(C(F)(F)F)C(F)(F)C(F)(F)C(F)(F)C(F)(F)C(F)(F)C(F)(F)C(F)(F)F (stereo not drawn) [Example M23, C7 F15 CF(CF3)COO^- K^+] | 2500 | 15.0
14 | O=C(O)C(F)(C(F)(F)F)C(F)(F)C(F)(F)C(F)(F)C(F)(F)C(F)(F)C(F)(F)C(F)(F)C(F)(F)F (stereo not drawn) [Example M24, C8 F17 CF(CF3)COO^- K^+] | 3000 | 16.4
15 | O=C(O)C(F)(C(F)(F)F)C(F)(F)C(F)(F)C(F)(F)C(F)(F)C(F)(F)C(F)(F)F (stereo not drawn) [Example M25, C6 F13 CF(CF3)COO^- Na^+] | 10000 | 19.8
16 | O=C(O)C(F)(C(F)(F)F)C(F)(F)C(F)(F)C(F)(F)C(F)(F)C(F)(F)C(F)(F)C(F)(F)F (stereo not drawn) [Example M26, C7 F15 CF(CF3)COO^- Na^+] | 3000 | 19.4
17 | O=C(O)C(F)(C(F)(F)F)C(F)(F)C(F)(F)C(F)(F)C(F)(F)C(F)(F)C(F)(F)C(F)(F)F (stereo not drawn) [Example M27, C7 F15 CF(CF3)COO^- Li^+] | 3500 | 24.1
18 | O=C(O)C(F)(C(F)(F)F)C(F)(F)C(F)(F)C(F)(F)C(F)(F)C(F)(F)C(F)(F)C(F)(F)F (stereo not drawn) [Example M30, C7 F15 CF(CF3)COO^- 1/2 [H3 N^+ C2 H4 NHC2 H4 N^+ H3]] | 3000 | 16.2

same assay, conditions: deionized water; Table 3

Row | Structure (SMILES) | CMC [ppm] | Surf. Tens. at the CMC [dynes/cm]
19 | C[N+](C)([O-])CCCNC(=O)C(F)(C(F)(F)F)C(F)(F)C(F)(F)C(F)(F)C(F)(F)C(F)(F)C(F)(F)C(F)(F)F (stereo not drawn) [Example E1, C7 F15 CF(CF3)CONH(CH2)3 N^+ (CH3)2 O^-] | 20 | 16.3
20 | C[N+](C)([O-])CCCNC(=O)C(F)(C(F)(F)F)C(F)(F)C(F)(F)C(F)(F)C(F)(F)C(F)(F)F (stereo not drawn) [Example E2, C5 F11 CF(CF3)CONH(CH2)3 N^+ (CH3)2 O^-] | 500 | 17.5
21 | C[N+](C)([O-])CCCNC(=O)C(F)(C(F)(F)F)C(F)(F)C(F)(F)C(F)(F)C(F)(F)C(F)(F)C(F)(F)F (stereo not drawn) [Example E3, C6 F13 CF(CF3)CONH(CH2)3 N^+ (CH3)2 O^-] | 100 | 16.6
22 | C[N+](C)([O-])CCCNC(=O)C(F)(C(F)(F)F)C(F)(F)C(F)(F)C(F)(F)C(F)(F)C(F)(F)C(F)(F)C(F)(F)C(F)(F)F (stereo not drawn) [Example E4, C8 F17 CF(CF3)CONH(CH2)3 N^+ (CH3)2 O^-] | 20 | 16.5
